The structures appear in SMILES notation.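 Where inhibition never reached the appropriate level, the endpoint shown equals the highest concentration tested. Otherwise, values were interpolated linearly from a five-concentration, 48-hour dose response in 96-well plates. TGI marks complete inhibition of growth.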

For the first assay, the system named is COLO 205 colon. The experiment in a line: NCI anticancer screen, dose series, 48 h.
Turning to `CC(=O)Nc1ccc(-c2nc3ccccc3s2)cc1`, the TGI is above 100 µM.
With `COc1ccc(-c2nc(SCC(=O)N/N=C/c3ccc(O)c(OC)c3)[nH]c2-c2ccc(OC)cc2)cc1`, the TGI was found to be 34.4 µM.
The same measure, in the same setting: as for `COC(=O)c1c(O)ccc2c1c1c(n2Cc2ccc(Cl)cc2Cl)C(=O)c2ccccc2C1`, the figure is above 100 µM; as for `CC(/C=N\NC(=S)N1CCCCC1)=N/NC(=S)N1CCCCC1`, 5.85 µM.
Still for that read-out and setting: to `CCOC(=O)c1cc(C2(O)CCN(CC(C)CC)C2=O)c(-c2cc(C)no2)[nH]1` (stereo unspecified) belongs above 100 µM.

In the next assay the test system is EKVX NSCLC. The assay is described as follows: NCI anticancer screen, dose series, 48 h.
`CCOC(=O)c1csc(NC(=O)CN2CCN(C)CC2)n1` came in with a TGI above 100 µM.
Take `CSc1ncnc2c1cnn2CCCCO`: the TGI is above 100 µM.
On the same count and under the same terms, to `CC(NNC(=O)CC(=O)N(C(=O)c1ccccc1)c1ccc(Cl)cc1)c1cc2ccccc2oc1=O` (stereo unspecified) belongs above 10 µM.
Take `O=C(NC(CO)Cc1ccc(Oc2cc(CC(CO)NC(=O)OCc3ccccc3)ccc2OC(=O)OCc2ccccc2)cc1)OCc1ccccc1` (stereo unspecified): the TGI is 47.8 µM.
Same read-out and setting: to `COc1ccc(-c2c(C#N)c(O)n(NS(=O)(=O)c3ccc(C)cc3)c(=O)c2C#N)cc1` belongs above 100 µM; to `CN(CCN(C)C(=S)NN)C(=S)NN`, above 100 µM.
Turning to `CSc1nncc2[nH]c(C)nc12`, the TGI was above 100 µM.
As for `COc1ccc(CCN=C2OCc3ccccc32)cc1OC`, the TGI is above 100 µM.
As to `CCCCn1c(C)c2c(c1C)C(=O)N(CC(O)CN1CCc3ccccc3C1)C2=O` (stereo unspecified), the TGI was above 100 µM.
Still for that read-out and setting: to `Oc1ccc(-c2nc(-c3ccc(F)cc3)c(-c3ccc4ccccc4n3)[nH]2)cc1` belongs 40.7 µM.
For the compound `CC(=O)Nc1ccc(-c2nc3ccccc3s2)cc1`, the TGI was above 100 µM.
Regarding `COc1ccc(-c2nc(SCC(=O)N/N=C/c3ccc(O)c(OC)c3)[nH]c2-c2ccc(OC)cc2)cc1`, the TGI is above 100 µM.
On the same count and under the same terms, as for `CC(/C=N\NC(=S)N1CCCCC1)=N/NC(=S)N1CCCCC1`, the figure is 14.8 µM; as for `CCOC(=O)c1cc(C2(O)CCN(CC(C)CC)C2=O)c(-c2cc(C)no2)[nH]1` (stereo unspecified), above 100 µM.

In a further assay the test system is HCC-2998 colon. The assay is described as follows: NCI anticancer screen, dose series, 48 h.
`CCOC(=O)c1csc(NC(=O)CN2CCN(C)CC2)n1` came in with a TGI above 100 µM.
For `CSc1ncnc2c1cnn2CCCCO`, the TGI was above 100 µM.
On the same count and under the same terms, as for `CC(NNC(=O)CC(=O)N(C(=O)c1ccccc1)c1ccc(Cl)cc1)c1cc2ccccc2oc1=O` (stereo unspecified), the figure is above 10 µM; as for `O=C(NC(CO)Cc1ccc(Oc2cc(CC(CO)NC(=O)OCc3ccccc3)ccc2OC(=O)OCc2ccccc2)cc1)OCc1ccccc1` (stereo unspecified), 30.5 µM; as for `COc1ccc(-c2c(C#N)c(O)n(NS(=O)(=O)c3ccc(C)cc3)c(=O)c2C#N)cc1`, above 100 µM.
Take `CN1C(=O)C(CC=O)(C(C)(C)C)c2ccccc21` (stereo unspecified): the TGI is above 100 µM.
Turning to `CN(CCN(C)C(=S)NN)C(=S)NN`, the TGI is above 100 µM.
`CSc1nncc2[nH]c(C)nc12` returned a TGI above 100 µM.
Consider `COc1ccc(CCN=C2OCc3ccccc32)cc1OC`, for which the TGI was above 100 µM.
The compound `CCCCn1c(C)c2c(c1C)C(=O)N(CC(O)CN1CCc3ccccc3C1)C2=O` (stereo unspecified) returned a TGI above 100 µM.
On the same count and under the same terms, as for `Oc1ccc(-c2nc(-c3ccc(F)cc3)c(-c3ccc4ccccc4n3)[nH]2)cc1`, the figure is 15.3 µM.
Same read-out and setting: to `CC(=O)Nc1ccc(-c2nc3ccccc3s2)cc1` belongs above 100 µM.
Same read-out and setting: to `COc1ccc(-c2nc(SCC(=O)N/N=C/c3ccc(O)c(OC)c3)[nH]c2-c2ccc(OC)cc2)cc1` belongs 32.3 µM; to `CC(/C=N\NC(=S)N1CCCCC1)=N/NC(=S)N1CCCCC1`, 11.7 µM.
In the case of `CCOC(=O)c1cc(C2(O)CCN(CC(C)CC)C2=O)c(-c2cc(C)no2)[nH]1` (stereo unspecified), the TGI is above 100 µM.

The next assay deals with K-562 leukemia. The assay is described as follows: NCI anticancer screen, dose series, 48 h.
Compound `CCOC(=O)c1csc(NC(=O)CN2CCN(C)CC2)n1` gave a TGI above 100 µM.
`CSc1ncnc2c1cnn2CCCCO` showed a TGI above 100 µM.
The same measure, in the same setting: to `CC(NNC(=O)CC(=O)N(C(=O)c1ccccc1)c1ccc(Cl)cc1)c1cc2ccccc2oc1=O` (stereo unspecified) belongs above 10 µM.
Same read-out and setting: as for `O=C(NC(CO)Cc1ccc(Oc2cc(CC(CO)NC(=O)OCc3ccccc3)ccc2OC(=O)OCc2ccccc2)cc1)OCc1ccccc1` (stereo unspecified), the figure is 46.7 µM; as for `CN1C(=O)C(CC=O)(C(C)(C)C)c2ccccc21` (stereo unspecified), above 100 µM; as for `CSc1nncc2[nH]c(C)nc12`, above 100 µM.
The same measure, in the same setting: as for `COc1ccc(CCN=C2OCc3ccccc32)cc1OC`, the figure is above 100 µM; as for `CCCCn1c(C)c2c(c1C)C(=O)N(CC(O)CN1CCc3ccccc3C1)C2=O` (stereo unspecified), above 100 µM.
Regarding `Oc1ccc(-c2nc(-c3ccc(F)cc3)c(-c3ccc4ccccc4n3)[nH]2)cc1`, the TGI was above 100 µM.
The same measure, in the same setting: as for `CC(=O)Nc1ccc(-c2nc3ccccc3s2)cc1`, the figure is 77 µM; as for `COc1ccc(-c2nc(SCC(=O)N/N=C/c3ccc(O)c(OC)c3)[nH]c2-c2ccc(OC)cc2)cc1`, 57.8 µM; as for `COC(=O)c1c(O)ccc2c1c1c(n2Cc2ccc(Cl)cc2Cl)C(=O)c2ccccc2C1`, above 100 µM.
`CC(/C=N\NC(=S)N1CCCCC1)=N/NC(=S)N1CCCCC1`: the TGI was above 100 µM.
Compound `CCOC(=O)c1cc(C2(O)CCN(CC(C)CC)C2=O)c(-c2cc(C)no2)[nH]1` (stereo unspecified) displayed a TGI above 100 µM.

In a further assay the test system is MDA-MB-435. The assay is described as follows: NCI anticancer screen, dose series, 48 h.
`CCOC(=O)c1csc(NC(=O)CN2CCN(C)CC2)n1` had a TGI above 100 µM.
Same read-out and setting: to `CSc1ncnc2c1cnn2CCCCO` belongs above 100 µM; to `CC(NNC(=O)CC(=O)N(C(=O)c1ccccc1)c1ccc(Cl)cc1)c1cc2ccccc2oc1=O` (stereo unspecified), above 10 µM.
Still for that read-out and setting: as for `O=C(NC(CO)Cc1ccc(Oc2cc(CC(CO)NC(=O)OCc3ccccc3)ccc2OC(=O)OCc2ccccc2)cc1)OCc1ccccc1` (stereo unspecified), the figure is 45 µM; as for `COc1ccc(-c2c(C#N)c(O)n(NS(=O)(=O)c3ccc(C)cc3)c(=O)c2C#N)cc1`, above 100 µM; as for `CN1C(=O)C(CC=O)(C(C)(C)C)c2ccccc21` (stereo unspecified), above 100 µM.
On to `CN(CCN(C)C(=S)NN)C(=S)NN`, for which the TGI is above 100 µM.
Take `CSc1nncc2[nH]c(C)nc12`: the TGI is above 100 µM.
The same measure, in the same setting: to `COc1ccc(CCN=C2OCc3ccccc32)cc1OC` belongs above 100 µM; to `CCCCn1c(C)c2c(c1C)C(=O)N(CC(O)CN1CCc3ccccc3C1)C2=O` (stereo unspecified), above 100 µM; to `Oc1ccc(-c2nc(-c3ccc(F)cc3)c(-c3ccc4ccccc4n3)[nH]2)cc1`, 29.6 µM.
Consider `CC(=O)Nc1ccc(-c2nc3ccccc3s2)cc1`, for which the TGI is above 100 µM.
As to `COc1ccc(-c2nc(SCC(=O)N/N=C/c3ccc(O)c(OC)c3)[nH]c2-c2ccc(OC)cc2)cc1`, the TGI was above 100 µM.
For `COC(=O)c1c(O)ccc2c1c1c(n2Cc2ccc(Cl)cc2Cl)C(=O)c2ccccc2C1`, the TGI is above 100 µM.
Still for that read-out and setting: to `CC(/C=N\NC(=S)N1CCCCC1)=N/NC(=S)N1CCCCC1` belongs 17.5 µM; to `CCOC(=O)c1cc(C2(O)CCN(CC(C)CC)C2=O)c(-c2cc(C)no2)[nH]1` (stereo unspecified), above 100 µM.

A further assay relates to NCI-H460 lung. The assay is described as follows: NCI anticancer screen, dose series, 48 h.
The compound `CCOC(=O)c1csc(NC(=O)CN2CCN(C)CC2)n1` registered a TGI above 100 µM.
Compound `CSc1ncnc2c1cnn2CCCCO` yielded a TGI above 100 µM.
Take `CC(NNC(=O)CC(=O)N(C(=O)c1ccccc1)c1ccc(Cl)cc1)c1cc2ccccc2oc1=O` (stereo unspecified): the TGI was above 10 µM.
The same measure, in the same setting: to `O=C(NC(CO)Cc1ccc(Oc2cc(CC(CO)NC(=O)OCc3ccccc3)ccc2OC(=O)OCc2ccccc2)cc1)OCc1ccccc1` (stereo unspecified) belongs 38.9 µM; to `COc1ccc(-c2c(C#N)c(O)n(NS(=O)(=O)c3ccc(C)cc3)c(=O)c2C#N)cc1`, above 100 µM.
The same measure, in the same setting: to `CN1C(=O)C(CC=O)(C(C)(C)C)c2ccccc21` (stereo unspecified) belongs above 100 µM.
Still for that read-out and setting: as for `CN(CCN(C)C(=S)NN)C(=S)NN`, the figure is above 100 µM.

The values are drawn from PubChem BioAssay (NCI).
